Data on four molecules can be found in patent US20240350512A1, “CYTOSKELETAL TENSION REGULATORS AND FAS LIGAND-COMBINATION COMPOSITIONS AND METHODS OF TREATMENT USING THE SAME” (Yale University, priority 2021, published 2024).

Data set [1] relates to U87 cells. It counts as cell-based. Conditions: for cell viability in U87 cells, drug combined with Fas ligand: Fas ligand 400 ng/mL with 40 μM Fasudil, 10 μM Blebbistatin or 20 μM GW5074. The source says:
FIGS. 3A-3E: Fortified Fas-mediated apoptosis in cancer cells. […] FIG. 3B: representative light microscopy images of U87 cells showing the effect of Fasudil-Fas ligand combination. For the other cancer cell types see FIG. 7. Fasudil-Fas ligand combination decreased the viability of A549, HepG2, SUM159, PC3, and BT549 cells synergistically (FIGS. 3C-3D).
(§1) After showing that Fas receptor expression on the cell surface can be increased with different ques targeting cytoskeletal tension, the Fas-mediated apoptosis triggered by the exogenous Fas ligand when combined with Fasudil, Blebbistain, or GW5074 was studied. The cell viability by quantifying the ATP level present in the cell culture medium after 48 hours of treatment was assessed.

For data set [2], the system named is surface Fas receptors of cancer cells (U87, A549, HepG2, PC3, and SUM159 cells). The data set is described as follows: Immunostaining of surface Fas receptors on cancer cells. As to conditions: 2 hours; 40 μM Fasudil, 10 μM Blebbistatin or 20 μM GW5074; range over U87, A549, HepG2, PC3, SUM159. Type of data set: cell-based. The protocol: (§2) FIGS. 2A-2E: Fas receptor expression on the cancer cell surface. FIG. 2A: Addition of either Fasudil, Blebbistatin, or GW5074 to the cell culture medium for 2 hours increased the Fas receptor staining on the cancer cells, but not on HUVECs. […] Fold increase of Fas staining density as response to treatment with FIG. 2C: Fasudil, FIG. 2D: Blebbisatin, and FIG. 2E: GW5074.
In the present study, the effect of the ROCK inhibitor Fasudil, Myosin-II inhibitor Blebbistatin, or the Raf-1 inhibitor GW5074 on Fas receptor translocation on surface of U87, A549, HepG2, PC3, and SUM159 cells was evaluated. The effect of these drugs on cell viability when used alone or in combination with exogenous, recombinant Fas ligand was analyzed. Next, the effects of Fasudil and Fas ligand combination on glioblastoma growth and on viability of non-cancerous cells in engineered brain organoids was investigated. Finally, the in vivo efficacy of the Fasudil-Fas ligand combination on preventing tumor growth in a xenograft U87 tumor model in nude mice was tested.
(§3) It was speculated that the active Raf-1, due to increased intracellular tension in cancer cell, can cause lack of Fas receptors on the cell surface and that either inhibition of Raf-1 or reduction of mechanical tension in the cytoskeleton can restore the Fas receptors on cell surface. To test this theory, U87 (glioblastoma), A549 (non-small cell lung cancer, resistant to apoptosis, FAS ligand alone increases proliferation), HepG2 (liver cancer), PC3 (prostate cancer), and SUM159 (triple negative breast cancer) cells were treated either with 20 μM Raf-1 inhibitor GW5074, 40 μM ROCK inhibitor Fasudil, or 10 μM myosin inhibitor Blebbistatin for 2 hours.

Data set [3] relates to Fas receptors on HUVECs. The data set is described as follows: Immunostaining of surface Fas receptors on HUVECs. It counts as cell-based. As to conditions: 2 hours; regardless of the treatment. The protocol:
as §2, §3

The test system of data set [4] is U87 xenograft tumor. The data set is described as follows: U87 xenograft tumor model in nude mice. Type of data set: in vivo. Conditions: for average tumor size: one month after tumor initiation, intraperitoneal injection twice a week for four weeks; for median survival probability: terminal point 1000 mm^3. As to the method: Further, the anti-tumor efficacies of Fas ligand and Fasudil combination using a U87 xenograft tumor model in nude mice were evaluated. Fas ligand and Fasudil were administrated by intraperitoneal injection when the subcutaneous tumor grew to palpable size >50 mm^3 twice a week for four weeks. The mice were primed with either Fasudil or saline 24 hours before the injection of Fasudil and Fas ligand together. Only Fasudil, only Fas ligand, and only saline injections were made in the control groups. 7-10 mice with tumor volumes ranging from 50-200 mm^3 were randomly assigned to each treatment arm. Terminal point for the tumor growth was determined as 1000 mm^3.

The test system of data set [5] is A549 cells. Type of data set: cell-based. The protocol:
as §1

The subject of data set [6] is PC3 cells. Type of data set: cell-based. The protocol: as §1
For data set [7], the system named is BT549 cells. Type of data set: cell-based. The protocol: as §1
The subject of data set [8] is HepG2 cells. Type of data set: cell-based. As to the method: as §1
Data set [9] deals with SUM159 cells. It counts as cell-based. As to the method:
as §1

Turning to `O=C1Nc2ccc(I)cc2/C1=C/c1cc(Br)c(O)c(Br)c1` [GW5074], the “cell viability in U87 cells, drug combined with Fas ligand” value (from here on “cell viability in U87 cells”) in [1] is “decreased cell viability significantly”. For the same molecule, in data set [2], the “increase of immunostaining of surface Fas receptors of cancer cells” value (from here on “increase”) is reported as 1.62-2.30 folds. Also, the “Fas staining of HUVECs” value in [3] was “negligible”.

On to `O=S(=O)(c1cccc2cnccc12)N1CCCNCC1` [Fasudil, fasudil], for which the “cell viability in U87 cells” value in [1] is recorded as “decreased cell viability significantly”. Moreover, in data set [4], the average tumor size was 584.4±113.8 mm3 and the median survival probability turned out to be 28%. For the same molecule, the “increase” value in [2] is 2.12-3.28 folds. Further, the “Fas staining of HUVECs” value in data set [3] was “negligible”.

As to `Cc1ccc2c(c1)C(=O)C1(O)CCN(c3ccccc3)C1=N2` (stereo not shown) [Blebbistatin, blebbistatin], the “cell viability in U87 cells” value in data set [1] is given as “decreased cell viability significantly”. In addition, the “increase” value in data set [2] is recorded as 1.76-2.15 folds. The “Fas staining of HUVECs” value in data set [3] is recorded as “negligible”.

B1: Fas ligand: human recombinant Fas ligand, protein having the amino acid sequence SEQ ID NO: 1 (protein, listed as Homo sapiens)
chain: MQQPFNYPYPQIYWVDSSASSPWAPPGTVLPCPTSVPRRPGQRRPPPPPPPPPLPPPPPPPPLPPLPLPPLKKRGNHSTGLCLLVMFFMVLVALVGLGLGMFQLFHLQKELAELRESTSQMHTASSLEKQIGHPSPPPEKKELRKVAHLTGKSNSRSMPLEWEDTYGIVLLSGVKYKKGGLVINETGLYFVYSKVYFRGQSCNNLPLSHKVYMRNSKYPQDLVMMEGKMMSYCTTGQMWARSSYLGAVFNLTSADHLYVNVSELSLVNFEESQTFFGLYK
Consider B1, for which the cell viability in [1] is 55.6 % of the control; in data set [5], 67.8 % of the control; in [6], 80.2 % of the control; in [7], 58.0 % of the control; in [8], 44.6 % of the control; in [9], 59.9 % of the control. Besides, the average tumor size in data set [4] was determined as 602.2±195.7 mm3. Further, the median survival probability in [4] came to 27%.
